Patent US20220401343A1, “ORAL CARE COMPOSITIONS FOR GUM HEALTH” (The Procter & Gamble Company, priority 2020, published 2022)

Tests used:
[1] = test system: collagen genes COL1A1 and COL1A2 in skin dermis; assay: Compound Screening on Skin Dermis: collagen gene expression (microarray) after topical treatment; format: in vivo, human; details: dorsal forearm twice daily, four weeks, vs vehicle, retinol at 0.2%, Pal-KTTKS at 100 ppm, p-value in brackets in the cell
Text: To screen compounds, 30 to 40 female subjects with Fitzpatrick skin types I-III, aged 60-70. At Baseline, each subject was assigned to test each treatment. The products were applied to the dorsal forearm twice daily. Topical treatment with a minimally efficacious moisturizer was used as the vehicle for each test compound and as the negative control.
After four weeks of treatment, one 4-mm punch biopsy was taken from each treated site. The dermis was separated and snap-frozen in liquid nitrogen and stored at −80° C. until assayed. The frozen tissue was then processed for gene expression analysis. To determine gene expression levels, RNA was extracted, labeled with biotin, hybridized and analyzed using Affymetrix GeneTitan® U219 microarray plates according to the manufacturer's instructions.
For genomics analysis, microarray sample quality was assessed using principal components analysis and MA-plots. Treatment to negative control comparisons for the microarray data were assessed using ANOVA models fitted separately for each probe set. ANOVA model hypothesis tests were evaluated using the Empirical Bayes method available in the limma R package. A p-value cutoff of 0.05 or less was consider statistically significant.

[2] = test system: Primary Human Gingival Fibroblasts (HGF); assay: Test 1: In-Vitro Human Gingival Fibroblasts Soluble Collagen Assay (Sircol); format: cell-based; details: for increase in collagen productivity vs. base control: Table 7 data, difference to base control
Experimental: Stage 1: Culturing Primary Human Gingival Fibroblasts (“HGF”): Primary Human Gingival Fibroblasts (“HGF”) were collected from tooth extraction patients and washed with 5 mL of PBS (phosphate buffered saline). The tissues were chopped into small pieces and placed into 15 mL centrifuge tube. The samples were digested with equal amounts of 1 mL 8% dispase and 1 mL 6% collagenase for 1 hr at 37° C., during which time the samples need to be shaken every 15 minutes. Once the digestion process was complete, the tube was centrifuged at 1100 r.p.m. for 6 minutes at room temperature. After centrifugation, a pellet of cells was formed in the bottom of the tube separating them from the supernatant solution. Then the supernatant was discarded and the cell pellet was suspended in 3 mL of fresh Minimum Essential Medium (“MEM”, available from Thermo Fisher) culture medium then transferred to a petri dish. The petri dish with cells were placed in the incubator at 37° C. with 5% CO2 for about 10 days. The petri dish was checked for changes in medium color every two days. Fresh culture medium was replaced if changes in medium color occurred.
Stage 2: Treatment with Compositions: Sub-Culturing Human Gingival Fibroblasts: When there was 80-90% cell monolayer coverage of the petri dish, the present culture medium was removed and washed with 5 mL of PBS. 1 mL 0.25% trypsin-EDTA solution was added and the cells sat for about 1-2 minutes at 37° C. until the cells were visibly round-shaped. It was occasionally necessary to tap the petri dish to remove any sticky cells from the petri dish surface. At least 1 mL of fresh MEM culture medium was added to inactivate the trypsin and the cells are collected into a 15 mL centrifuge tube. The tube was then centrifuged at 1100 r.p.m. for 6 minutes at room temperature. The supernatant was discarded and cell pellet is re-suspend-ed in 4 mL of fresh MEM culture medium in the same centrifuge tube. Petri dishes were each placed with 1 mL cell suspension and 9 mL fresh MEM culture medium in the incubator at 37° C. with 5% CO2 for about 3-5 days until 80-90% cell monolayer coverage on the petri dishes was observed.
When there was 80-90% cell monolayer coverage on the petri dishes, cells were re-suspended in 6 mL of fresh MEM culture medium. 1 mL cell suspension and 1 mL fresh MEM culture medium were respectively added into each well of a 6-well plate. The cells were further washed with 2 mL PBS to remove any suspended cells until no suspended cells are visible. […] Cells were maintained in the incubator at 37° C. with 5% CO2 for 72 hours.
Stage 3 Soluble Collagen Assay: Soluble collagen (types I to V) levels were measured by Sircol collagen assay kit (available from Biocolor, UK). After treatment, cells were washed two times with chilled PBS and homogenized with 6M urea. The cell homogenates were centrifuged at 15,000 r.p.m. for 15 min. 100 μL of the supernatant was mixed with 1 mL of Sircol Dye Reagent for 30 minutes. During this time period, a collagen-dye complex formed and precipitated out from the soluble unbound dye. The tubes were transferred to a microcentrifuge and spun at 12,000 r.p.m. for 10 minutes. The tubes were carefully inverted and drained. 750 μL ice-cold Acid-Salt Wash Reagent was gently added to the collagen-dye pellet to remove unbound dye from the surface of the pellet and the inside surface of the microcentrifuge tube. The tube was then centrifuged at 12,000 r.p.m. for 10 minutes. The supernatant was drained into a waste container and any fluid from the lip of the tubes was removed using cotton wool buds. 250 μL of Alkali Reagent was added to each tube to fully release the collagen bound dye. 200 μL of each sample was transferred to individual wells of a 96 micro well plate, keeping a record map of the contents of each well from A1 to H12.

[3] = Table 5, 1% composition in culture medium, 72 hours

Molecule	COL1A1 LFC (Log base 2 of the average Fold Change) [1]	COL1A2 LFC (Log base 2 of the average Fold Change) [1]	COL1A1 LFC (Log base 2 of the average Fold Change) ([1]; listed as retinol)	COL1A2 LFC (Log base 2 of the average Fold Change) ([1]; listed as retinol)	increase in collagen productivity vs. base control [2]	Collagen Productivity (Collagen/Cell) [2, 3]	Total Cell Count Cell [2, 3]	Total Collagen ([2]; Table 5, retinoids at 20 ppm in composition, 1% composition in culture medium, 72 hours)	Collagen Productivity (Collagen/Cell) ([2]; Table 6, 1:100 dilution)	Total Cell Count Cell ([2]; Table 6, 1:100 dilution)	Collagen Productivity ([2]; Table 7, 1:100 dilution)	Total Cell Count Cell ([2]; Table 7, 1:100 dilution)	Total Collagen ([2]; Table 7, 1:100 dilution)	Collagen Productivity (Collagen/Cell) ([2]; Table 9, 1:50 dilution)	Total Cell Count Cell ([2]; Table 9, 1:50 dilution)	Total Collagen ([2]; Table 9, 1:50 dilution)
CC1=C(/C=C/C(C)=C/C=C/C(C)=C/CO)C(C)(C)CCC1 [Retinol, retinol]	−0.10 (0.93)	−0.022 (0.88)	did not demonstrate significant regulation	did not demonstrate significant regulation	0.30											
TGF-B						5.17	2.60 ×10^5	13.44 ug/100 ul	4.86	2.72 ×10^5	4.86 ug per 10^5 cells/100 ul	2.72 ×10^5	13.24 ug/100 ul	5.17	2.60 ×10^5	13.44 ug/100 ul
palmitoyl-lys-thr-thr-lys-ser [Pal-KTTKS]					0.24											
